Laboratory results as given in PMC12133000 (PLOS One, 2025).
Several values for one entry are separate records, joined by “and”; a condition that tells them apart may be missing. Equal values may be shown once. Read-outs that look alike come from different tables or passages of the source.

Assay: Pharmacokinetics of rivaroxaban in rats after avitinib or gefitinib pretreatment
Type: in vivo, Sprague–Dawley (SD) rats
Details: for AUC(0-inf) / Tmax / AUC(0-t) / CL/F / Cmax / MRT last / half-life / k el / MRT inf / Vd/F: po, 10 mg/kg; for CL/F: read-out: CLz/F (converted); for Cmax: read-out: Cmax; for k el: read-out: λz (converted); for Vd/F: read-out: Vz/F
Description: Eighteen male Sprague–Dawley (SD) rats weighing 300 ± 20 g were provided by the Experimental Animal Center of Wenzhou Medical University (Wenzhou, China) and kept under controlled conditions at a temperature of 23 ± 2 °C, relative humidity of 50 ± 10%, and 12 h light–dark cycle. Eighteen male SD rats were randomly assigned to three groups: avitinib, gefitinib, and control, with six rats per group. Prior to the experiment, the rats were not administered any other medications and fasted for 12 h. The experimental procedures and protocols adhered to Animal Ethics standards and were approved by the Animal Care and Use Committee of Wenzhou Medical University (approval no. wydw2019–650). All rats were anesthetized with sodium pentobarbital (40mg/kg, i.p) to relieve pain. The rats were killed through cervical dislocation.
Prior to the experiment in vivo, the six rats in the avitinib group were administered 30 mg/kg avitinib and 0.5% sodium carboxymethyl cellulose (CMC-Na) solution by gavage daily for 7 d. […] The supernatant was collected and stored at −80 °C. After thawing, 50 μL of plasma was extracted; 100 μL of acetonitrile solution containing midazolam (200 ng/mL) was then added to induce protein precipitation. After vortexing for 30 s and centrifuging at 13,000 rpm for 5 min, the […].
All assays were performed in triplicate, and the results are expressed as mean ± standard deviation. DAS software v. […] SPSS v. 25.0 (IBM, NY, USA) was used for data processing. Student’s t-tests were used to detect differences between groups. Differences with p < 0.05 were considered statistically significant.

[1] = male, Sprague-Dawley, rat, plasma, avitinib group, Mean
[2] = male, Sprague-Dawley, rat, plasma, gefitinib group, Mean
[3] = male, Sprague-Dawley, rat, plasma, gefitinib group, single rats No1-No6
[4] = male, Sprague-Dawley, rat, plasma, rats, rivaroxaban 10 mg/kg oral, avitinib group (30 mg/kg pretreatment)
[5] = male, Sprague-Dawley, rat, plasma, rats, rivaroxaban 10 mg/kg oral, control group (CMC-Na only)
[6] = male, Sprague-Dawley, rat, plasma, rats, rivaroxaban 10 mg/kg oral, gefitinib group (25 mg/kg pretreatment)

## O=C(NC[C@H]1CN(c2ccc(N3CCOCC3=O)cc2)C(=O)O1)c1ccc(Cl)s1 [rivaroxaban, Rivaroxaban]
male, Sprague-Dawley, rat, plasma, oral, rivaroxaban ng/ml mean, 吉非替尼 (gefitinib) group, mean of rats 7-12, time 12
  concentration at 12 h: 1640 ng/mL
male, Sprague-Dawley, rat, plasma, oral, rivaroxaban ng/ml mean, 艾维替尼 (avitinib) group, mean (one rat only), time 24
  concentration at 24 h: 14.8 ng/mL
male, Sprague-Dawley, rat, plasma, oral, rivaroxaban ng/ml mean, 艾维替尼 (avitinib) group, mean of rats 1-6, time 0.0833
  concentration at 5 min: 284 ng/mL
male, Sprague-Dawley, rat, plasma, oral, rivaroxaban ng/ml mean, 艾维替尼 (avitinib) group, mean of rats 1-6, time 0.25
  concentration at 0.25 h: 588 ng/mL
male, Sprague-Dawley, rat, plasma, oral, rivaroxaban ng/ml mean, 艾维替尼 (avitinib) group, mean of rats 1-6, time 0.5
  concentration at 0.5 h: 1090 ng/mL
male, Sprague-Dawley, rat, plasma, oral, rivaroxaban ng/ml mean, 艾维替尼 (avitinib) group, mean of rats 1-6, time 1
  concentration at 1 h: 1730 ng/mL
male, Sprague-Dawley, rat, plasma, oral, rivaroxaban ng/ml mean, 艾维替尼 (avitinib) group, mean of rats 1-6, time 2
  concentration at 2 h: 1650 ng/mL
male, Sprague-Dawley, rat, plasma, oral, rivaroxaban ng/ml mean, 艾维替尼 (avitinib) group, mean of rats 1-6, time 3
  concentration at 3 h: 1390 ng/mL
male, Sprague-Dawley, rat, plasma, oral, rivaroxaban ng/ml mean, 艾维替尼 (avitinib) group, mean of rats 1-6, time 4
  concentration at 4 h: 1010 ng/mL
male, Sprague-Dawley, rat, plasma, oral, rivaroxaban ng/ml mean, 艾维替尼 (avitinib) group, mean of rats 1-6, time 6
  concentration at 6 h: 538 ng/mL
male, Sprague-Dawley, rat, plasma, oral, rivaroxaban ng/ml mean, 艾维替尼 (avitinib) group, mean of rats 1-6, time 8
  concentration at 8 h: 448 ng/mL
male, Sprague-Dawley, rat, plasma, oral, rivaroxaban ng/ml mean, 艾维替尼 (avitinib) group, mean of rats 1-6, time 12
  concentration at 12 h: 80.9 ng/mL
male, Sprague-Dawley, rat, plasma, oral, rivaroxaban ng/ml, 吉非替尼 (gefitinib) group, individual rats 7-12, time 0.25
  concentration at 0.25 h: 1690 ng/mL
male, Sprague-Dawley, rat, plasma, oral, rivaroxaban ng/ml, 吉非替尼 (gefitinib) group, individual rats 7-12, time 0.5
  concentration at 0.5 h: 3820 ng/mL
male, Sprague-Dawley, rat, plasma, oral, rivaroxaban ng/ml, 吉非替尼 (gefitinib) group, individual rats 7-12, time 1
  concentration at 1 h: 5910 ng/mL
male, Sprague-Dawley, rat, plasma, oral, rivaroxaban ng/ml, 吉非替尼 (gefitinib) group, individual rats 7-12, time 3
  concentration at 3 h: 9510 ng/mL
male, Sprague-Dawley, rat, plasma, oral, rivaroxaban ng/ml, 吉非替尼 (gefitinib) group, individual rats 7-12, time 4
  concentration at 4 h: 11300 ng/mL
male, Sprague-Dawley, rat, plasma, oral, rivaroxaban ng/ml, 吉非替尼 (gefitinib) group, individual rats 7-12, time 6
  concentration at 6 h: 3980 ng/mL
male, Sprague-Dawley, rat, plasma, oral, rivaroxaban ng/ml, 吉非替尼 (gefitinib) group, individual rats 7-12, time 8
  concentration at 8 h: 3270 ng/mL
male, Sprague-Dawley, rat, plasma, oral, rivaroxaban ng/ml, 艾维替尼 (avitinib) group, individual rats 1-6, time 0.0833
  concentration at 5 min: 237 ng/mL
male, Sprague-Dawley, rat, plasma, oral, rivaroxaban ng/ml, 艾维替尼 (avitinib) group, individual rats 1-6, time 24
  concentration at 24 h: 14.8 ng/mL
[1]
  AUC(0-inf): 9350 ng·h/mL
  Tmax: 1.33 h
  CL/F: 19.7 mL/min/kg
  Cmax: 1810 ng/mL
  k el: 0.000104 s⁻¹
male, Sprague-Dawley, rat, plasma, avitinib group, Mean, read-out: AUC(0-t)
  AUC(0-t): 9000 ng·h/mL
male, Sprague-Dawley, rat, plasma, avitinib group, Mean, read-out: MRT(0-t)
  MRT last: 3.79 h
male, Sprague-Dawley, rat, plasma, avitinib group, Mean, read-out: t1/2z (converted)
  half-life: 2.2 h
male, Sprague-Dawley, rat, plasma, avitinib group, single rats No1-No6
  Tmax: 1 h
male, Sprague-Dawley, rat, plasma, avitinib group, single rats No1-No6, read-out: MRT(0-t)
  MRT last: 3.83 h
male, Sprague-Dawley, rat, plasma, avitinib group, single rats No1-No6, read-out: MRT(0-∞)
  MRT inf: 2.87 h
[2]
  AUC(0-inf): 76000 ng·h/mL
  Tmax: 3.17 h
  CL/F: 2.32 mL/min/kg
  Cmax: 8310 ng/mL
  Vd/F: 0.867 L/kg
  k el: 5.17e-05 s⁻¹
male, Sprague-Dawley, rat, plasma, gefitinib group, Mean, read-out: AUC(0-t)
  AUC(0-t): 58000 ng·h/mL
male, Sprague-Dawley, rat, plasma, gefitinib group, Mean, read-out: MRT(0-t)
  MRT last: 4.9 h
male, Sprague-Dawley, rat, plasma, gefitinib group, Mean, read-out: MRT(0-∞)
  MRT inf: 8.23 h
male, Sprague-Dawley, rat, plasma, gefitinib group, Mean, read-out: t1/2z (converted)
  half-life: 4.81 h
[3]
  AUC(0-inf): 109000 ng·h/mL
  CL/F: 1.53 mL/min/kg
  Cmax: 6780 ng/mL
male, Sprague-Dawley, rat, plasma, gefitinib group, single rats No1-No6, read-out: AUC(0-t)
  AUC(0-t): 62400 ng·h/mL
male, Sprague-Dawley, rat, plasma, gefitinib group, single rats No1-No6, read-out: MRT(0-t)
  MRT last: 5.59 h
[4]
  AUC(0-inf): 9350 ± 3840 ng·h/mL
  Tmax: 1.33 ± 0.82 h
  CL/F: 19.7 mL/min/kg
  Cmax: 1810 ± 619 ng/mL
male, Sprague-Dawley, rat, plasma, rats, rivaroxaban 10 mg/kg oral, avitinib group (30 mg/kg pretreatment), read-out: AUC(0–t)
  AUC(0-t): 9000 ± 3740 ng·h/mL
male, Sprague-Dawley, rat, plasma, rats, rivaroxaban 10 mg/kg oral, avitinib group (30 mg/kg pretreatment), read-out: MRT(0–t)
  MRT last: 3.79 ± 0.66 h
male, Sprague-Dawley, rat, plasma, rats, rivaroxaban 10 mg/kg oral, avitinib group (30 mg/kg pretreatment), read-out: t1/2 (converted)
  half-life: 2.2 ± 1.07 h
[5]
  AUC(0-inf): 2280 ± 870 ng·h/mL
  Tmax: 0.83 ± 0.26 h
  CL/F: 80.8 mL/min/kg
  Cmax: 441 ± 81.8 ng/mL
  Vd/F: 11.5 ± 2.63 L/kg
male, Sprague-Dawley, rat, plasma, rats, rivaroxaban 10 mg/kg oral, control group (CMC-Na only), read-out: AUC(0–t)
  AUC(0-t): 2250 ± 853 ng·h/mL
male, Sprague-Dawley, rat, plasma, rats, rivaroxaban 10 mg/kg oral, control group (CMC-Na only), read-out: MRT(0–t)
  MRT last: 3.79 ± 1.08 h
male, Sprague-Dawley, rat, plasma, rats, rivaroxaban 10 mg/kg oral, control group (CMC-Na only), read-out: MRT(0–∞)
  MRT inf: 3.95 ± 1.05 h
male, Sprague-Dawley, rat, plasma, rats, rivaroxaban 10 mg/kg oral, control group (CMC-Na only), read-out: t1/2 (converted)
  half-life: 1.61 ± 0.61 h
[6]
  AUC(0-inf): 76000 ± 20800 ng·h/mL
  Tmax: 3.17 ± 0.98 h
  CL/F: 2.33 mL/min/kg
  Cmax: 8310 ± 2100 ng/mL
  Vd/F: 0.87 ± 0.28 L/kg
male, Sprague-Dawley, rat, plasma, rats, rivaroxaban 10 mg/kg oral, gefitinib group (25 mg/kg pretreatment), read-out: AUC(0–t)
  AUC(0-t): 58000 ± 5890 ng·h/mL
male, Sprague-Dawley, rat, plasma, rats, rivaroxaban 10 mg/kg oral, gefitinib group (25 mg/kg pretreatment), read-out: MRT(0–t)
  MRT last: 4.9 ± 0.47 h
male, Sprague-Dawley, rat, plasma, rats, rivaroxaban 10 mg/kg oral, gefitinib group (25 mg/kg pretreatment), read-out: MRT(0–∞)
  MRT inf: 8.23 ± 3.61 h
male, Sprague-Dawley, rat, plasma, rats, rivaroxaban 10 mg/kg oral, gefitinib group (25 mg/kg pretreatment), read-out: t1/2 (converted)
  half-life: 4.81 ± 2.7 h
rats, rivaroxaban 10 mg/kg oral, avitinib group (30 mg/kg pretreatment)
  MRT(0–∞): 4.26 ± 1.12 h
吉非替尼 (gefitinib) group, individual rats 7-12, time 0.0833
  rivaroxaban: 778.8 ng/mL and 334.9 ng/mL and 724.5 ng/mL and 847.1 ng/mL and 256.3 ng/mL and 816.3 ng/mL
吉非替尼 (gefitinib) group, individual rats 7-12, time 0.25
  rivaroxaban: 1686.1 ng/mL and 1476.8 ng/mL and 2176.1 ng/mL and 1686 ng/mL and 1747.2 ng/mL
吉非替尼 (gefitinib) group, individual rats 7-12, time 0.5
  rivaroxaban: 3330.8 ng/mL and 4408.9 ng/mL and 4082.8 ng/mL and 3161.2 ng/mL and 3240.3 ng/mL
吉非替尼 (gefitinib) group, individual rats 7-12, time 1
  rivaroxaban: 5012 ng/mL and 6707.2 ng/mL and 5280.7 ng/mL and 6110.2 ng/mL and 4481.1 ng/mL
吉非替尼 (gefitinib) group, individual rats 7-12, time 2
  rivaroxaban: 8309.8 ng/mL and 7015.4 ng/mL and 10641.7 ng/mL and 6946 ng/mL
吉非替尼 (gefitinib) group, individual rats 7-12, time 3
  rivaroxaban: 6431.9 ng/mL and 10386.8 ng/mL and 7734.1 ng/mL
吉非替尼 (gefitinib) group, individual rats 7-12, time 4
  rivaroxaban: 6136.6 ng/mL and 9214.1 ng/mL and 6949.9 ng/mL
吉非替尼 (gefitinib) group, individual rats 7-12, time 6
  rivaroxaban: 6115 ng/mL and 5681 ng/mL and 5825.4 ng/mL
吉非替尼 (gefitinib) group, individual rats 7-12, time 8
  rivaroxaban: 3374.5 ng/mL and 2542.2 ng/mL and 4779.1 ng/mL
吉非替尼 (gefitinib) group, individual rats 7-12, time 12
  rivaroxaban: 732.7 ng/mL and 1716.7 ng/mL and 1654.8 ng/mL and 917.3 ng/mL
对照 (control, rivaroxaban alone) group, individual rats 13-18, time 0.0833
  rivaroxaban: 278.3 ng/mL and 142.7 ng/mL and 136.5 ng/mL and 68.9 ng/mL and 158.6 ng/mL and 163.2 ng/mL
对照 (control, rivaroxaban alone) group, individual rats 13-18, time 0.25
  rivaroxaban: 264.9 ng/mL and 294.2 ng/mL and 171.8 ng/mL and 256.9 ng/mL and 261.1 ng/mL
对照 (control, rivaroxaban alone) group, individual rats 13-18, time 0.5
  rivaroxaban: 465.3 ng/mL and 337.5 ng/mL and 461.6 ng/mL and 378.7 ng/mL and 305.8 ng/mL
对照 (control, rivaroxaban alone) group, individual rats 13-18, time 2
  rivaroxaban: 261.4 ng/ml (2×) and 475.9 ng/ml and 181.6 ng/ml and 351.5 ng/ml and 418.6 ng/ml and 334.6 ng/ml
对照 (control, rivaroxaban alone) group, individual rats 13-18, time 3
  rivaroxaban: 240.8 ng/mL and 431.8 ng/mL and 207.2 ng/mL and 349.6 ng/mL
艾维替尼 (avitinib) group, individual rats 1-6, time 0.0833
  rivaroxaban: 380.2 ng/mL and 320.6 ng/mL and 287.7 ng/mL and 191 ng/mL and 288.9 ng/mL and 237.4 ng/mL
艾维替尼 (avitinib) group, individual rats 1-6, time 0.25
  rivaroxaban: 386.7 ng/ml (2×) and 727.9 ng/ml and 581.8 ng/ml and 614.9 ng/ml and 286.3 ng/ml and 927.5 ng/ml
艾维替尼 (avitinib) group, individual rats 1-6, time 0.5
  rivaroxaban: 990.9 ng/ml (2×) and 1066.3 ng/ml and 1018.5 ng/ml and 978.4 ng/ml and 583.2 ng/ml and 1904.4 ng/ml
艾维替尼 (avitinib) group, individual rats 1-6, time 1
  rivaroxaban: 1423.2 ng/ml (2×) and 1593.7 ng/ml and 2386.3 ng/ml and 1162.7 ng/ml and 1561.2 ng/ml and 2231.2 ng/ml
